The subject of assay [1] is Phytophthora infestans. The format is cell-based.
Assay [2] deals with Pyricularia oryzae. The format is cell-based. As to conditions: 0.25 ppm.
In assay [3] the test system is Phytophthora infestans. The format is cell-based. The source holds these as a separate data set.
For assay [4], the system named is Botrytis cinerea. The assay can be described thus: Use Example 2: preventative control of grey mold on leaves of green pepper. The format is in vivo. As to conditions: 4 ppm. As for the experimental part: (§1) The active compounds, separately or jointly, were prepared as a stock solution comprising 25 mg of active compound which was made up to 10 ml using a mixture of acetone and/or DMSO and the emulsifier Uniperol® EL (wetting agent having an emulsifying and dispersing action based on ethoxylated alkylphenols) in a ratio by volume of solvent/emulsifier of 99:1. The mixture was then made up to 100 ml with water. This stock solution was diluted with the solvent/emulsifier/water mixture described to give the concentration of active compound stated below.
(§2) The visually determined percentages of infected leaf areas were converted into efficacies in % of the untreated control:
(§3) The efficacy (E) is calculated as follows using Abbot's formula: […]
(§4) α corresponds to the fungicidal infection of the treated plants in % and
(§5) β corresponds to the fungicidal infection of the untreated (control) plants in % […]
(§6) The expected efficacies of active compound combinations were determined using Colby's formula (Colby, S. R. “Calculating synergistic and antagonistic responses of herbicide combinations”, Weeds, 15, pp. 20-22, 1967) and compared with the observed efficacies. […]
Young seedlings of green pepper were grown in pots to the 2 to 3 leaf stage. […] After 5 days at 22 to 24° C. and a relative humidity close to 100% the extent of fungal attack on the leaves was visually assessed as % diseased leaf area.

The test system of assay [5] is Phytophthora infestans. The format is in vivo.
Assay [6] relates to Puccinia recondita. The assay can be described thus: Use Example 5: curative control of brown rust on wheat. The format is in vivo. On the procedure:
as §1, §2, §3, §4
(§7) β corresponds to the fungicidal infection of the untreated (control) plants in %
(§8) An efficacy of 0 means that the infection level of the treated plants corresponds to that of the untreated control plants; an efficacy of 100 means that the treated plants were not infected.
(§9) The expected efficacies of active compound combinations were determined using Colby's formula (Colby, S. R. “Calculating synergistic and antagonistic responses of herbicide combinations”, Weeds, 15, pp. 20-22, 1967) and compared with the observed efficacies.
(§10) Colby's formula: E=x+y−x·y/100 • E expected efficacy, expressed in % of the untreated control, when using the mixture of the active compounds A and B at the concentrations a and b • x efficacy, expressed in % of the untreated control, when using the active compound A at the concentration a • y efficacy, expressed in % of the untreated control, when using the active compound B at the concentration b
The first two developed leaves of pot-grown wheat seedling were dusted with spores of Puccinia recondita. To ensure the success the artificial inoculation, the plants were transferred to a humid chamber without light and a relative humidity of 95 to 99% and 20 to 22° C. for 24 h. The next day the plants were sprayed to run-off with an aqueous suspension, containing the concentration of active ingredient or their mixture as described below. The plants were allowed to air-dry. Then the trial plants were cultivated for 8 days in a greenhouse chamber at 22-26° C. and a relative humidity between 65 and 70%. The extent of fungal attack on the leaves was visually assessed as % diseased leaf area.

The test system of assay [7] is Phakopsora pachyrhizi. The assay can be described thus: Use Example 8: curative control of soy bean rust on soy beans. The format is in vivo. The settings on record: 0.25 ppm. On the procedure:
as §1, §2, §3, §4, §5, §6
Leaves of pot-grown soy bean seedlings were inoculated with spores of Phakopsora pachyrhizi. […] The extent of fungal attack on the leaves was visually assessed as % diseased leaf area.

The test system of assay [8] is Septoria tritici.
The test system of assay [9] is Ramularia collo-cygni/Physiological leaf spots. The assay can be described thus: Control of phytopathogenic fungi in barley (statement in the description). The format is in vivo. The settings on record: solo or in combination with an active compound II.
Assay [10] relates to Alternaria solani. The assay can be described thus: Use Example 1: preventative fungicidal control of early blight on tomatoes. The assay is classed as in vivo. As to conditions: 0.25 ppm. On the procedure:
as §1, §2, §3, §4, §7, §8, §9, §10
Young seedlings of tomato plants were grown in pots. […] After 5 days at 20 to 22° C. and a relative humidity close to 100%, the extent of fungal attack on the leaves was visually assessed as % diseased leaf area.

For assay [11], the system named is Pyrenophora teres. The assay can be described thus: Use Example 7: control of net blotch on barley. The assay is classed as in vivo, Pyrenophora (syn. Drechslera) teres. On the procedure: as §1, §2, §3, §6
The first fully developed leaves of pot grown barley plants were sprayed to run-off with an aqueous suspension, containing the concentration of active ingredient or their mentioned in the table below. […] After 6 days of cultivation at 20-24° C. and a relative humidity close to 70%, the extent of fungal attack on the leaves was visually assessed as % leaf area.

Assay [12] has as its system Blumeria graminis f. sp. tritici. The assay can be described thus: Use Example 4: control of powdery mildew on wheat. The settings on record: 0.25 ppm. The format is in vivo. On the procedure:
as §1, §2, §3, §6
The first fully developed leaves of pot grown wheat were sprayed to run-off with an aqueous suspension, containing the concentration of active ingredient or their mixture mentioned in the table below. […] After cultivation in the greenhouse for 7 days at 22-26° C. and a relative humidity between 60 to 90% the extent of fungal attack on the leaves was visually assessed as % diseased leaf area.

Assay [13] deals with Puccinia recondita. The assay can be described thus: Use Example 6: preventative control of brown rust on wheat. As to conditions: 0.25 ppm. The format is in vivo. As for the experimental part: as §1, §2, §3
α corresponds to the fungicidal infection of the treated plants in % and […]
as §6
The first two developed leaves of pot-grown wheat seedling were sprayed to run-off with an aqueous suspension, containing the concentration of active ingredient or their as described below. […] The extent of fungal attack on the leaves was visually assessed as % diseased leaf area.

In assay [14] the test system is Botrytis cinerea. The assay can be described thus: Use Example 9.2: activity against grey mold in the microtiterplate test. The format is cell-based.
Assay [15] deals with Pyricularia oryzae. The format is cell-based.
Assay [16] has as its system Septoria tritici. The assay can be described thus: Use Example 13: control of Septoria tritici. The format is cell-based.

Like-named read-outs stand apart in the source and are kept apart here.

On to `COC(=O)[C@@H](C)N(C(=O)Cc1ccccc1)c1c(C)cccc1C` [Benalaxyl-M, benalaxyl-M, reference compound], for which the “Observed activity (% infection)” value in assay [1] (16 ppm) is listed as 18%. Also, the “Observed activity (%)” value in assay [2] is recorded as 0%.

Take `C[N+]1(C)CCCCC1` [Mepiquat-chloride]: in [3] (63 ppm), the “Observed activity (% infection)” value was determined as 14%.

Turning to `Cc1nn(C)c(F)c1C(=O)Nc1ccccc1C(C)CC(C)C` (centres unmarked) [N-(2-(1,3-dimethylbutyl)-phenyl)-1,3-dimethyl-5-fluoro-1H-pyrazole-4-carboxylic acid amide], the “Observed efficacy (% of untreated control)” value worked out at 0% in [4], 0% in [6] (0.25 ppm), 0% in [6] (1 ppm) and 60% in [7]. Further, the “Observed activity (% infection)” value in assay [5] (1 ppm) and in assay [5] (4 ppm) was 0% in each case. In assay [8] (0.004 ppm), this compound registered an Observed activity of 1%.

For `Cn1cc(C(=O)Nc2ccc(F)cc2-c2ccc(Cl)c(Cl)c2)c(C(F)F)n1` [N-(3′,4′-dichloro-5-fluorobiphenyl-2-yl)-1-methyl-3-difluoromethyl-1H-pyrazole-4-carboxamide], the “activity against Ramularia collo-cygni/Physiological leaf spots” value in assay [9] is listed as “excellent activity”.

Regarding `CCN(C)C=Nc1cc(C)c(Oc2ccc(Cl)c(C(F)(F)F)c2)cc1C` [N′-(4-(4-chloro-3-trifluoromethyl-phenoxy)-2,5-dimethyl-phenyl)-N-ethyl-N-methyl formamidine], in assay [10], the “Observed fungicidal efficacy (% of untreated control)” value was 22%. In addition, the “Observed activity (% infection)” value in assay [5] (1 ppm) is listed as 0%; in assay [1] (4 ppm) it was 33%. For the same compound, in assay [11] (0.25 ppm), the “Observed efficacy (% of untreated control)” value came to 25%.

Regarding `CCN(C)C=Nc1cc(C)c(Oc2ccc(F)c(C(F)(F)F)c2)cc1C` [N′-(4-(4-fluoro-3-trifluoromethyl-phenoxy)-2,5-dimethyl-phenyl)-N-ethyl-N-methyl formamidine], the “Observed fungicidal efficacy (% of untreated control)” value in [10] amounted to 0%. In addition, in assay [5] (16 ppm), the “Observed activity (% infection)” value was found to be 0%. Moreover, the “Observed efficacy (% of untreated control)” value came out at 38% in [12], 67% in [6] (0.25 ppm) and 13% in assay [11] (1 ppm).

In the case of `CCC(=O)C1=C([O-])CC(C(=O)[O-])CC1=O.[Ca+2]` (centres unmarked) [Prohexadione-Ca], the “Observed activity (% infection)” value in assay [3] (16 ppm) is given as 17%.

Take `CCOC(=O)C1CC(=O)C(=C(O)C2CC2)C(=O)C1` (centres unmarked) [Trinexapac-ethyl]: the “Observed activity (% infection)” value in assay [3] (63 ppm) is on record as 39%.

As to `Clc1ccc(C2(Cn3cncn3)OCCO2)c(Cl)c1` [azaconazole], in assay [10], the “Observed fungicidal efficacy (% of untreated control)” value is on record as 0%. Besides, the “Observed efficacy (% of untreated control)” value in [4], in assay [6] (0.25 ppm) and in [13] was 0% in each case. Also, the “Observed activity (% infection)” value in assay [5] (4 ppm) amounted to 0%. In assay [8] (0.016 ppm), this compound yielded an Observed activity of 19%.

`O=C(NCCc1ncc(C(F)(F)F)cc1Cl)c1ccccc1C(F)(F)F` [fluopyram]: the “Observed activity (%)” value in assay [14] (0.004 ppm) is given as 4%.

For `Clc1cccc(C(Cl)(Cl)Cl)n1` [nitrapyrin], in assay [14] (0.016 ppm), the “Observed activity (%)” value turned out to be 10%.

Turning to `CC1CCCCN1CCCOC(=O)c1ccc(Cl)c(Cl)c1` (centres unmarked) [piperalin], in [14] (0.016 ppm), the “Observed activity (%)” value is on record as 12%.

With `CCC(=O)C1=C([O-])CC(C(=O)[O-])CC1=O.[Ca+2]` (centres unmarked) [prohexadione-Ca], the “Observed activity (%)” value in [15] (0.25 ppm) stood at 0%. Further, the “Observed fungicidal efficacy (%)” value in assay [16] (0.25 ppm) stood at 0%.

For `CCOC(=O)C1CC(=O)C(=C(O)C2CC2)C(=O)C1` (centres unmarked) [trinexapac-ethyl], in [15] (4 ppm), the “Observed activity (%)” value turned out to be 2%. For the same compound, the “Observed fungicidal efficacy (%)” value in assay [16] (4 ppm) is reported as 2%.

The values are drawn from US20100035753A1, “Fungicidal Mixtures Comprising Substituted 1-methylpyrazol-4-ylcarboxanilides” (BASF SE, priority 2007, published 2010).
